Each block holds one compound with its values, some of them ahead of it. Activity calls are given as the source filed them. No cut-off for these calls is given here. Starred links: 1 amine or outer side, 2 acyl side, 3 side chain; linkers in the order of their positions; H or OH if unused. Non-standard residues stand in square brackets, D forms with d. Residues, ends and D or L forms follow the SMILES beside them. X2 = CCN1C(=O)c2cccc3c(-n4cc(C[C@H](N[*:1])C(=O)[*:2])nn4)ccc(c23)C1=O; X1 = O=C([C@H](Cc1cn(-c2ccc3ccc4cccc5ccc2c3c45)nn1)N[*:1])[*:2]; X5 = Cc1cc(=O)[nH]c2cc(-n3cc(C[C@H](N[*:1])C(=O)[*:2])nn3)ccc12; X4 = O=C([C@H](Cc1cn(-c2cc3ccc(O)cc3oc2=O)nn1)N[*:1])[*:2]; X3 = O=C([C@H](Cc1cn(-c2cccc3ccccc23)nn1)N[*:1])[*:2]
Legend:
[1] = molecular target: Tyrosine-protein kinase Lyn (Homo sapiens) (UniProt P07948); assay: Binding affinity to Lyn assessed as increase of fluorescence after 60 mins relative to control
[2] = molecular target: Tyrosine-protein kinase Lyn (Homo sapiens) (UniProt P07948); assay: Induction of Lyn phosphorylation in human K562 CML cells assessed as peptide substrate consumption at 25 uM after 40 mins in presence of Bcr-Abl inhibitor Imatinib; format: cell-based
[3] = molecular target: Tyrosine-protein kinase Lyn (Homo sapiens) (UniProt P07948); assay: Induction of Lyn phosphorylation in human K562 CML cells assessed as peptide substrate consumption at 25 uM after 60 mins in presence of Bcr-Abl inhibitor Imatinib; format: cell-based
[4] = molecular target: Tyrosine-protein kinase Lyn (Homo sapiens) (UniProt P07948); assay: Binding affinity to Lyn assessed as increase of fluorescence after 60 mins by HPLC analysis
[5] = molecular target: Tyrosine-protein kinase Lyn (Homo sapiens) (UniProt P07948); assay: Binding affinity to Lyn in human K562 CML cells assessed as increase of fluorescence; format: cell-based; conditions: TDE = time-dependent effect
[6] = molecular target: Tyrosine-protein kinase Lyn (Homo sapiens) (UniProt P07948); assay: Binding affinity to Lyn in human K562 CML cells assessed as increase of fluorescence after 60 mins in presence of Bcr-Abl inhibitor Imatinib; format: cell-based
[7] = molecular target: Tyrosine-protein kinase Lyn (Homo sapiens) (UniProt P07948); assay: Induction of Lyn phosphorylation in human K562 CML cells assessed as peptide substrate consumption at 25 uM after 10 mins; format: cell-based
[8] = molecular target: Tyrosine-protein kinase Lyn (Homo sapiens) (UniProt P07948); assay: Binding affinity to Lyn in human K562 CML cells assessed as increase of fluorescence after 60 mins in presence of SFK inhibitor SU6656; format: cell-based
[9] = molecular target: Tyrosine-protein kinase Lyn (Homo sapiens) (UniProt P07948); assay: Induction of Lyn phosphorylation in human K562 CML cells assessed as peptide substrate consumption at 25 uM after 40 mins; format: cell-based
[10] = molecular target: Tyrosine-protein kinase Lyn (Homo sapiens) (UniProt P07948); assay: Induction of Lyn phosphorylation in human K562 CML cells assessed as peptide substrate consumption at 25 uM after 60 mins; format: cell-based
[11] = molecular target: Tyrosine-protein kinase Lyn (Homo sapiens) (UniProt P07948); assay: Induction of Lyn phosphorylation in human K562 CML cells assessed as peptide substrate consumption at 25 uM after 20 mins in presence of Bcr-Abl inhibitor Imatinib; format: cell-based
[12] = molecular target: Tyrosine-protein kinase Lyn (Homo sapiens) (UniProt P07948); assay: Induction of Lyn phosphorylation in human K562 CML cells assessed as peptide substrate consumption at 25 uM after 20 mins; format: cell-based
[13] = molecular target: Tyrosine-protein kinase Lyn (Homo sapiens) (UniProt P07948); assay: Induction of Lyn phosphorylation in human K562 CML cells assessed as peptide substrate consumption at 25 uM after 10 mins in presence of Bcr-Abl inhibitor Imatinib; format: cell-based

Chain of Tyrosine-protein kinase Lyn (Homo sapiens) (P07948 2-512 limits assumed): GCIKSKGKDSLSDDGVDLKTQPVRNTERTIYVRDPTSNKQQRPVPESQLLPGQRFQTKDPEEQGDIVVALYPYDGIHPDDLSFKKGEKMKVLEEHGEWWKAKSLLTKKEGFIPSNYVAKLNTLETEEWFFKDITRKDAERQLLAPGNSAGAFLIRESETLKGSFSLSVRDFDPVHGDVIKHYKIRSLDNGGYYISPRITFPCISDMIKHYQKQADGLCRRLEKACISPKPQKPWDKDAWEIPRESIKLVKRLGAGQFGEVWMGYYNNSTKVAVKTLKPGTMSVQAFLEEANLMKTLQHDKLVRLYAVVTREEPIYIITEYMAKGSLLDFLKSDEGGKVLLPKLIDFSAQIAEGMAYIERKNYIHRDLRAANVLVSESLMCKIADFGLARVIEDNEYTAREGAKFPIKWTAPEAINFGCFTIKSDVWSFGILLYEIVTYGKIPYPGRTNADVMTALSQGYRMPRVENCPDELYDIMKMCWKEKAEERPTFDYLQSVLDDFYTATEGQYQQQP

SMILES: CC[C@H](C)[C@H](NC(=O)[C@H](CCC(=O)O)NC(=O)[C@H](CCC(=O)O)NC(=O)[C@H](CCC(=O)O)NC(=O)[C@H](C)N)C(=O)N[C@@H](Cc1ccc(O)cc1)C(=O)NCC(=O)N[C@@H](CCC(=O)O)C(=O)N[C@@H](Cc1cn(Cc2cc(=O)oc3cc(N)ccc23)nn1)C(=O)N[C@@H](CCC(=O)O)C(=O)N[C@@H](C)C(=O)N[C@@H](CCCCN)C(=O)N[C@@H](CCCCN)C(=O)N[C@@H](CCCCN)C(=O)N[C@@H](CCCCN)C(N)=O
- fold change (FC) [1]: 1.3

SMILES: CC[C@H](C)[C@H](NC(=O)[C@H](CCC(=O)O)NC(=O)[C@H](CCC(=O)O)NC(=O)[C@H](CCC(=O)O)NC(=O)[C@H](C)N)C(=O)N[C@@H](Cc1ccc(O)cc1)C(=O)NCC(=O)N[C@@H](CCC(=O)O)C(=O)N[C@@H](Cc1cn(Cc2cc(=O)oc3cc(NC(C)=O)ccc23)nn1)C(=O)N[C@@H](CCC(=O)O)C(=O)N[C@@H](C)C(=O)N[C@@H](CCCCN)C(=O)N[C@@H](CCCCN)C(=O)N[C@@H](CCCCN)C(=O)N[C@@H](CCCCN)C(N)=O
- fold change (FC) [1]: 1.3

SMILES: CC[C@H](C)[C@H](NC(=O)[C@H](CCC(=O)O)NC(=O)[C@H](CCC(=O)O)NC(=O)[C@H](CCC(=O)O)NC(=O)[C@H](C)N)C(=O)N[C@@H](Cc1ccc(O)cc1)C(=O)NCC(=O)N[C@@H](CCC(=O)O)C(=O)N[C@@H](Cc1cn(-c2cccc3ccccc23)nn1)C(=O)N[C@@H](CCC(=O)O)C(=O)N[C@@H](C)C(=O)N[C@@H](CCCCN)C(=O)N[C@@H](CCCCN)C(=O)N[C@@H](CCCCN)C(=O)N[C@@H](CCCCN)C(N)=O (H-AEEEIYGE[X3]EAKKKK-NH2)
- fold change (FC) [1]: 0

SMILES: CC[C@H](C)[C@H](NC(=O)[C@H](CCC(=O)O)NC(=O)[C@H](CCC(=O)O)NC(=O)[C@H](CCC(=O)O)NC(=O)[C@H](C)N)C(=O)N[C@@H](Cc1ccc(O)cc1)C(=O)NCC(=O)N[C@@H](CCC(=O)O)C(=O)N[C@@H](Cc1cn(-c2cc3ccc(O)cc3oc2=O)nn1)C(=O)N[C@@H](CCC(=O)O)C(=O)N[C@@H](C)C(=O)N[C@@H](CCCCN)C(=O)N[C@@H](CCCCN)C(=O)N[C@@H](CCCCN)C(=O)N[C@@H](CCCCN)C(N)=O (H-AEEEIYGE[X4]EAKKKK-NH2)
- fold change (FC) [1]: 1.1

SMILES: CC[C@H](C)[C@H](NC(=O)[C@H](CCC(=O)O)NC(=O)[C@H](CCC(=O)O)NC(=O)[C@H](CCC(=O)O)NC(=O)[C@H](C)N)C(=O)N[C@@H](Cc1ccc(O)cc1)C(=O)NCC(=O)N[C@@H](CCC(=O)O)C(=O)N[C@@H](Cc1cn(-c2ccc3c(C)cc(=O)[nH]c3c2)nn1)C(=O)N[C@@H](CCC(=O)O)C(=O)N[C@@H](C)C(=O)N[C@@H](CCCCN)C(=O)N[C@@H](CCCCN)C(=O)N[C@@H](CCCCN)C(=O)N[C@@H](CCCCN)C(N)=O (H-AEEEIYGE[X5]EAKKKK-NH2)
- fold change (FC) [1]: 0

More lines, now with the values ahead:

- fold change (FC) [1]: 0
SMILES: CC[C@H](C)[C@H](NC(=O)[C@H](CCC(=O)O)NC(=O)[C@H](CCC(=O)O)NC(=O)[C@H](CCC(=O)O)NC(=O)[C@H](C)N)C(=O)N[C@@H](Cc1ccc(O)cc1)C(=O)NCC(=O)N[C@@H](CCC(=O)O)C(=O)N[C@@H](Cc1cn(CCNS(=O)(=O)c2cccc3c(N(C)C)cccc23)nn1)C(=O)N[C@@H](CCC(=O)O)C(=O)N[C@@H](C)C(=O)N[C@@H](CCCCN)C(=O)N[C@@H](CCCCN)C(=O)N[C@@H](CCCCN)C(=O)N[C@@H](CCCCN)C(N)=O

- Activity [2]: 0.33%
- Activity [3]: 0.41%
- fold change (FC) [4]: 4
- Activity [5]: tde
- Activity [6]: inactive
- Activity [7]: 1.35%
- Activity [8]: inactive
- Activity [9]: 2.01%
- fold change (FC) [1]: 4
- Activity [10]: 4.24%
- Activity [11]: 0.25%
- Activity [12]: 1.67%
- Activity [13]: 0.18%
SMILES: CC[C@H](C)[C@H](NC(=O)[C@H](CCC(=O)O)NC(=O)[C@H](CCC(=O)O)NC(=O)[C@H](CCC(=O)O)NC(=O)[C@H](C)N)C(=O)N[C@@H](Cc1ccc(O)cc1)C(=O)NCC(=O)N[C@@H](CCC(=O)O)C(=O)N[C@@H](Cc1cn(-c2ccc3ccc4cccc5ccc2c3c45)nn1)C(=O)N[C@@H](CCC(=O)O)C(=O)N[C@@H](C)C(=O)N[C@@H](CCCCN)C(=O)N[C@@H](CCCCN)C(=O)N[C@@H](CCCCN)C(=O)N[C@@H](CCCCN)C(N)=O (H-AEEEIYGE[X1]EAKKKK-NH2)

- fold change (FC) [1]: 2.5
SMILES: CC[C@H](C)[C@H](NC(=O)[C@H](CCC(=O)O)NC(=O)[C@H](CCC(=O)O)NC(=O)[C@H](CCC(=O)O)NC(=O)[C@H](C)N)C(=O)N[C@@H](Cc1ccc(O)cc1)C(=O)NCC(=O)N[C@@H](CCC(=O)O)C(=O)N[C@@H](Cc1cn(-c2ccc3c4c(cccc24)C(=O)N(CC)C3=O)nn1)C(=O)N[C@@H](CCC(=O)O)C(=O)N[C@@H](C)C(=O)N[C@@H](CCCCN)C(=O)N[C@@H](CCCCN)C(=O)N[C@@H](CCCCN)C(=O)N[C@@H](CCCCN)C(N)=O (H-AEEEIYGE[X2]EAKKKK-NH2)
